Laboratory results taken from publication PMC8022201, “Non‐canonical metabolic pathways in the malaria parasite detected by isotope‐tracing metabolomics” (Molecular Systems Biology, 2021).

Molecular target: T1, HAD4 (PfHAD4) (Plasmodium falciparum, UniProt Q8III4)
T1 construct: gene PF3D7_1118400
Assay: biochemical

T1 sequence (Q8III4 1-306): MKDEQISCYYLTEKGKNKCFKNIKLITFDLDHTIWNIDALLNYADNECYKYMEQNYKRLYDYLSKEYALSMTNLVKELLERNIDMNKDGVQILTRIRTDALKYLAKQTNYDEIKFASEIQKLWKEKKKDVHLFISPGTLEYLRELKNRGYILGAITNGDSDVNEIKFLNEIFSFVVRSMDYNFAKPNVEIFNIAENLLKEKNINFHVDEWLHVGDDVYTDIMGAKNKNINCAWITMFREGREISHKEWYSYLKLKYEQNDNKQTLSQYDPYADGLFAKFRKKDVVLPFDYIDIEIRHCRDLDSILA

In the case of `O=P(O)(O)O` [inorganic phosphate], the IC50 is reported as 2100 ± 210 µM.
